Experiment: xn = mol fraction of the nth substance listed

CC(=O)CC(C)C + CCCCCCCCO
viscosity [mPa·s], 100 kPa
Conditions	x1 = 0.0818	x1 = 0.1616	x1 = 0.2492	x1 = 0.3517	x1 = 0.4411	x1 = 0.5629	x1 = 0.6505	x1 = 0.7501	x1 = 0.8518	x1 = 0.9519
293.15 K	7.68	6.48	5.45	4.46	3.71	2.87	2.32	1.72	1.2	0.76
303.15 K	5.45	4.69	3.97	3.27	2.78	2.19	1.8	1.37	0.97	0.65
313.15 K	4	3.46	2.97	2.47	2.1	1.67	1.4	1.11	0.82	0.57
323.15 K	3	2.63	2.28	1.92	1.65	1.34	1.14	0.93	0.71	0.5

CC(=O)CC(C)C + CCCCCCCO
viscosity [mPa·s], 100 kPa
Conditions	x1 = 0.0823	x1 = 0.1682	x1 = 0.2346	x1 = 0.3569	x1 = 0.4379	x1 = 0.5614	x1 = 0.6493	x1 = 0.7489	x1 = 0.8505	x1 = 0.9471
293.15 K	5.46	4.21	3.56	2.62	2.19	1.66	1.37	1.1	0.86	0.68
303.15 K	4.09	3.24	2.78	2.08	1.76	1.35	1.13	0.91	0.72	0.59
313.15 K	3.09	2.53	2.2	1.71	1.45	1.14	0.96	0.79	0.63	0.52
323.15 K	2.37	1.98	1.76	1.4	1.22	0.98	0.83	0.68	0.56	0.47

O=C1CCCCC1 + CCCCCCCO
298.15 K, 101 kPa
Conditions	viscosity [mPa·s]
x2 = 0.1013	1.965
x2 = 0.1998	2.034
x2 = 0.3029	2.16
x2 = 0.4029	2.351
x2 = 0.4994	2.584
x2 = 0.5977	2.914
x2 = 0.6971	3.335
x2 = 0.8008	3.921
x2 = 0.8949	4.663

CC(=O)CC(C)C + CCCCCCO
viscosity [mPa·s], 100 kPa
Conditions	x1 = 0.0851	x1 = 0.1723	x1 = 0.2541	x1 = 0.3619	x1 = 0.4246	x1 = 0.5566	x1 = 0.6612	x1 = 0.7441	x1 = 0.8559	x1 = 0.9468
293.15 K	3.74	2.71	2	1.37	1.12	0.78	0.65	0.6	0.56	0.56
303.15 K	2.94	2.14	1.62	1.13	0.93	0.66	0.53	0.49	0.48	0.49
313.15 K	2.32	1.79	1.38	0.96	0.79	0.54	0.43	0.41	0.41	0.43
323.15 K	1.88	1.48	1.15	0.8	0.66	0.45	0.35	0.33	0.34	0.37

O=C1CCCCC1 + CCCCCCO
303.15 K, 101 kPa
Conditions	viscosity [mPa·s]
x1 = 0.1001	3.014
x1 = 0.2599	2.391
x1 = 0.4199	2.008
x1 = 0.5798	1.861
x1 = 0.7404	1.738

OCCOc1ccccc1 + CCCCCCO
viscosity [mPa·s], 101 kPa
Conditions	x2 = 0.1	x2 = 0.201	x2 = 0.301	x2 = 0.401	x2 = 0.501	x2 = 0.601	x2 = 0.701	x2 = 0.801	x2 = 0.9
303.15 K	10.95	9.244	8.099	7.25	6.508	5.696	4.981	4.335	3.978
313.15 K	7.906	7.005	6.239	5.548	4.764	4.151	3.605	3.222	2.981
323.15 K	5.285	4.821	4.389	3.866	3.518	3.128	2.716	2.358	2.148
